In one test the target is T1, GriF (Streptomyces muensis, UniProt A0A0E3URI1).
T1 construct: recombinant, produced in E. coli
T1 sequence (A0A0E3URI1 1-391): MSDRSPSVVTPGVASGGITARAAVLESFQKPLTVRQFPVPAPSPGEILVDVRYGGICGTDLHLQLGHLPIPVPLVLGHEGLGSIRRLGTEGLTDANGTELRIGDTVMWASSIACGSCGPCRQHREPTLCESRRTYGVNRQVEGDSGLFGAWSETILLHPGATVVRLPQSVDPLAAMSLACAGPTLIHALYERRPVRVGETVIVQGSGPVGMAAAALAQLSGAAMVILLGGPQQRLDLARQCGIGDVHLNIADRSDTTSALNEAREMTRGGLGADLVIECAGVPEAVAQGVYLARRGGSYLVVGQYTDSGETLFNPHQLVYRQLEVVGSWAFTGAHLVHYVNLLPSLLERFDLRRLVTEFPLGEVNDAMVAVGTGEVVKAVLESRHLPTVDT
The test is described as follows: LC-MS of product. Type of test: biochemical. To be noted: NAD+, ZnSO4; product cyclizes to the pyrroline.

Another test addresses T2, GriE (Streptomyces muensis, UniProt A0A0E3URV8).
T2 construct: recombinant, produced in E. coli
T2 sequence (A0A0E3URV8 1-270): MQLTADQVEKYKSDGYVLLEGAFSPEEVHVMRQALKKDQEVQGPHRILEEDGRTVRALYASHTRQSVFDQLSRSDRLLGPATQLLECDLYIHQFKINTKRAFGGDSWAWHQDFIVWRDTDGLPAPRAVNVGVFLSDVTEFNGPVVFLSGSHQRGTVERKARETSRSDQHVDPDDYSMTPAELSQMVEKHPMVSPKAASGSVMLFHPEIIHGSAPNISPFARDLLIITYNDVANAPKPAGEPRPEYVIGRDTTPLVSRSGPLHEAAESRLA
Put plainly: X-ray crystallography. In kind it is binding.

Setting [1] is: co-crystallized with Mn2+, L-leucine and alpha-ketoglutarate, turned over in the crystal set-up, 1.53 Å.

In the case of `C[C@@H](CO)C[C@H](N)C(=O)O` [(2S,4R)-5-hydroxyleucine], the LC-MS of product result at GriF is “incubation of recombinant GriF with 5-hydroxyleucine, ZnSO4 and NAD^+ was unstable”. Moreover, the X-ray crystallography result at GriE (setting [1]) was “electron density clearly confirms 5-hydroxyleucine to be the postulated (2S,4R)-diastereomer”.

For the compound `CC(C)C[C@H](N)C(=O)O` [L-leucine], the X-ray crystallography result on GriE (co-crystallized with Co2+ in place of Fe2+ and alpha-ketoglutarate, 1.76 Å, active site, no direct metal contact) was “unambiguously revealed bound metal and both L-leucine and α-ketoglutarate”.

Take `O=C(O)CCC(=O)O` [succinate]: the X-ray crystallography result on GriE (setting [1]) is reported as “succinate coordinates the metal with one carboxylate oxygen”.
